The values that follow come from ChEMBL document CHEMBL1139561, “Biaryl isoxazolinone antibacterial agents” (Bioorg Med Chem Lett, 2005).

One data set concerns Haemophilus influenzae. Put plainly: Minimum inhibition concentration against Haemophilus influenzae strains. The data set is classed as functional.
In data set [1] the test system is Staphylococcus aureus. Description: Minimum inhibition concentration against Staphylococcus aureus strains in presence of 0.25% calf serum. It counts as functional.
Data set [2] in a line: Protective dose against Staphylococcus aureus in mice after 8 days of oral b.i.d. administration at 1 and 5 hr per interval (n=10). It counts as functional. The conditions noted are these: read-out: PD50.
The nature of data set [3]: Maximum serum concentration in mouse was determined. It counts as ADME, organism-based.
Data set [4] can be described thus: Area under curve concentration in mouse was determined. Particulars: in vivo. It counts as ADME.
Data set [5] in a line: Half life for compound in mouse was determined. The data set is classed as ADME. The conditions noted are these: in vivo.
In data set [6] the test system is Staphylococcus aureus. Description: Minimum inhibition concentration against Staphylococcus aureus strains in presence of 0.03% calf serum. The data set is classed as functional.
Data set [7] in a line: Minimum inhibition concentration against Haemophilus influenzae strains; range is 2-8 […]. The data set is classed as functional.
The subject of data set [8] is Staphylococcus aureus. Put plainly: Minimum inhibition concentration against Staphylococcus aureus strains in presence of 8% calf serum. It counts as functional.

The structures appear in SMILES notation. ≈ marks a conversion by molar mass, not a printed value.

By Cmax is commonly meant the highest concentration seen after dosing. What is called half-life is the time needed for the level to fall by half in the phase considered. Turning to `CC(=O)NCn1cc(-c2ccc(-c3cncnc3)cc2)c(=O)o1`, the figures for the MIC against Haemophilus influenzae and with Staphylococcus aureus [1] were 4 µg/mL (≈ 12.9 µM) and 0.25 µg/mL, respectively. In addition, in data set [2], the ED50 is over 14.1 mg/kg/day. The same molecule returned a Cmax in data set [3] of 10400 ng/mL. Moreover, the AUC in [4] stood at 29.1 µg/h/mL. The half-life in [5] was determined as 1.72 h.
For the molecule `CC(=O)NCn1cc(-c2ccc(-c3ccsc3)cc2)c(=O)o1`, the MIC was found to be 4 µg/mL (≈ 12.7 µM) with Haemophilus influenzae and 0.03 µg/mL in the data set on Staphylococcus aureus [6].
As to `CC(=O)NCn1cc(-c2ccc(-c3cccs3)cc2)c(=O)o1`, the MIC in [7] was 2 µg/mL (≈ 6.36 µM); in the data set on Staphylococcus aureus [8], 0.25 µg/mL.
